pIC50: −log10 of the molar value. Entries after “also recorded” stand apart in the source; their conditions may differ. Where two headings read alike, the source gives them in different places.
Tests used:
E. coli J96 = experiment: Bactericidal assay on J96; type: cell-based; settings: for pIC50: read-out: Bacterial activity on J96 IC50 (conc)
Source text: Pseudomonas aeruginosa type 1 is a clinical, smooth strain isolate stereotyped by using the scheme of Homma et al., Japan. J. Exp. Med. 46, 329-336 (1976) and maintained in the lab by monthly transfer on blood agar plates. E. coli J96, IA2, and H5 are smooth strain, uropathogenic clinical isolates kindly maintained and provided by J. R. Johnson and described in Johnson et al., J. Infect. Disease 173, 920-926 (1996) for J96 and IA2 and in Johnson et al., J. Infect. Disease 173, 746-749 (1996) for H5. J5 is an E. coli rough strain initially referenced by G. R. Siber and discussed in Warren et al., Infect. Immunity 55, 1668-1673 (1987) and is analogous to the smooth strain E. coli 0111:B4 used in the BioWhittaker LAL endotoxin detection and quantitation kit described below. Gram-positive MN8 and MNHO are two patient isolates of Staphylococcus aureus, which were kindly provided by P. M. Schlievert and described in Bohach et al., Rev. Infect. Diseases 11, 75-82 (1989) for MNHO and in Schlievert et al., J. Infect. Diseases 147, 236-242 (1983) for MN8. All cultures are maintained on nutrient agar plates.
Pyrogen-free solutions were used throughout the assay. Log phase bacteria were obtained by transferring an overnight culture or scraping crystals off-85° C glycerol stocks of overnight cultures. Bacteria were washed and resuspended in 0.9% sodium chloride with adjustment to an optical density at 650 nm which yields 3×10^8 CFU/ml. Bacteria were then diluted 1:10 in 0.08 M citrate phosphate buffer, pH 7.0 (prepared by mixing 0.08 M citric acid with 0.08 M dibasic sodium phosphate). Bacteria (0.15 ml) were incubated with the test compound in a final volume of 1.0 ml of buffer. The assay was done in 17×100 polypropylene tubes in a reciprocal water bath shaker at 37° C for 30 minutes. Following this 30 minute (min) incubation. 10-fold dilutions were made in 0.9% sodium chloride. Dilutions were done to 10^−4 and 20 μl of each dilution was streaked across an agar plate. Gram-positive organisms were plated on nutrient agar plates containing 2% agar and Gram-negative organisms were plated on MacConkey agar (2%). Plates were incubated overnight at 37° C and counted the next morning. The dilution containing 10-100 bacteria was counted and the number multiplied by 50 to adjust all counts to the number bacteria killed per milliliter. Compound concentrations were converted to logarithm base ten and graphed. Bactericidal activity was determined by dose response where LD50 values were determined by best fits of a sigmoidal curve to the dose response data.

Solubility (Table 1) = type: physicochemical; settings: footnotes: 3 mM in 100% DMSO or ethanol → 0.03 mM in H2O
endothelial cell (EC) = experiment: EC Proliferation Assay, [3H]thymidine incorporation (Example 36, Table 1); type: cell-based; settings: read-out: EC proliferation IC50 (conc)
Description: Human umbilical vein derived EC(HUVEC) were harvested from normal human umbilical cords by perfusion with 0.125% trypsin/EDTA as described in Groenewegen et al., J. Exp. Med. 164, 131-143 (1986). For determination of quiescent EC phenotype isolated ECs were immediately fixed in 1% paraformaldehyde. Human microvascular ECs (MVECs) were isolated. ECs were cultured in fibronectin coated tissue culture flasks in culture medium (RPMJ-1640 with 20% human serum (HS), supplemented with 2 mM glutamine and 100 U/ml penicillin and 0.1 mg/ml streptomycin).
EC proliferation was measured using a [^3H]thymidine incorporation assay. ECs were seeded at 5000 cells/well in flatbottomed tissue culture plates and grown for 3 days, in the absence or presence of regulators, in culture medium. During the last 6 hours of the assay, the culture was pulsed with 0.5μ Ci [methyl-^3H]thymidine/well.

[1] = test system: LPS from E. coli serotype 055:B5; experiment: LPS neutralization assay (Limulus amoebocyte lysate, QCL-1000); type: biochemical
Source text: (§1) The ability of compounds to neutralize endotoxin was detected in vitro by using the chromogenic QCL-1000 kit from BioWhittaker, Inc. (Walkersville, Md.), and as described in their protocol. This Limulus amoebocyte lysate (LAL) assay is quantitative for Gram negative bacterial endotoxin (lipopolysaccharide, LPS). In this assay compounds that are active inhibit the LPS-mediated activation of a proenzyme whose active form would release p-nitroaniline (pNA) from a colorless synthetic substrate producing a yellow color (pNA) whose absorption is monitored spectrophotometrically at 405-410 nm. The initial rate of enzyme activation is proportional to the concentration of endotoxin present.
(§2) Variants of LPS from six Gram negative bacteria were used: E. coli serotypes 0111:B4 (Combrex, Walkersville, Md.) and 055:B5 (Sigma, St. Louis, Mo.); Klebsiella pneumoniae (List Biologies, San Jose, Calif.); Pseudomonas aeruginosa (List Biologies, San Jose, Calif.); Salmonella typhimurium (List Biologies, San Jose, Calif.), and Serratia marcascens (List Biologies, San Jose, Calif.). The concentration of compound required to neutralize a given LPS and therefore to inhibit the Limulus amoebocyte lysate driven by 0.04 units of any given LPS was determined by dose response curves fit by using a standard sigmoidal function to determined the JC50 value for each lopomimetic compound. The 0.04 units corresponds to 0.01 ng LPS from E. coli serotype 055:B5, 0.01 ng LPS from E. coli serotype 0111:B4, 0.003 ng LPS from K. pneumoniae, 0.01 ng LPS from P. aeruginosa, 0.03 ng LPS from S. typhimurium, and 0.03 ng LPS from S. marcascens.

[2] = test system: LPS from E. coli serotype 0111:B4; experiment: as above; type: biochemical; settings: read-out: IC50 values (μM) for LPS binding, E. coli 0111:B4
Source text: as §1, §2

LPS from P. aeruginosa = experiment: as above; type: biochemical, Pseudomonas aeruginosa; settings: read-out: IC50 values (μM) for LPS binding, P.a.
Source text: as §1, §2

LPS from S. typhimurium = experiment: as above; type: biochemical, Salmonella typhimurium; settings: read-out: IC50 values (μM) for LPS binding, Salmonella
Source text: as §1, §2

LPS from S. marcascens = experiment: as above; type: biochemical, Serratia marcascens; settings: read-out: IC50 values (μM) for LPS binding, Serratia
Source text: as §1, §2

LPS from K. pneumoniae = experiment: as above; type: biochemical, Klebsiella pneumoniae; settings: read-out: IC50 values (μM) for LPS binding, Klebsiella
Source text: as §1, §2

[3] = test system: LPS from six species of bacteria; experiment: LPS neutralization assay, overall statements; type: biochemical; settings: library of 23 compounds
Source text: as §1
as §2, with “The 0.04 units corresponds to 0.01 ng LPS from E. coli serotype 055:B5, 0.01 ng LPS from E. coli serotype 0111:B4, 0.003 ng LPS from K. pneumoniae, 0.01 ng LPS from P. aeruginosa, 0.03 ng LPS from S. typhimurium, and 0.03 ng LPS from S. marcascens.” left out

Hemolysis (Table 1) = type: cell-based; settings: at 10^−6 M
EC [4] = experiment: EC % apoptosis (Table 1); type: cell-based, human
Fibro = experiment: Other cells, Fibro (Table 1); type: cell-based
EC [5] = experiment: EC % total cell death (Table 1); type: cell-based, human
[6] = Table 2, read-out: IC50 values (μM) for LPS binding, E. coli 055:B4
[7] = Table 3, errors estimated ±30%, read-out: IC50 values (μM) for LPS binding, E. coli 055:B5

## CC(C)(C)c1cc2c(O)c(c1)Cc1cc(C(C)(C)C)cc(c1OCCNC(=N)N)Cc1cc(C(C)(C)C)cc(c1O)Cc1cc(C(C)(C)C)cc(c1OCCN)C2.O=C(O)C(F)(F)F
E. coli J96
  pIC50: 5.60
Solubility (Table 1)
  Solubility (solvent, in words): DMSO/H2O
Endothelial cell (EC)
  pIC50: < 4.60

## CC(C)(C)c1cc2c(O)c(c1)Cc1cc(C(C)(C)C)cc(c1OCCCCNC(=N)N)Cc1cc(C(C)(C)C)cc(c1OCCCCNC(=N)N)Cc1cc(C(C)(C)C)cc(c1OCCCCNC(=N)N)C2
E. coli J96
  pIC50: 5.89
Solubility (Table 1)
  Solubility (solvent, in words): DMSO/H2O
Endothelial cell (EC)
  pIC50: < 4.60

## CC(C)CCOc1c2cc(CCC(=O)NCCN(C)C)cc1Cc1cc(CCC(=O)NCCN(C)C)cc(c1OCCC(C)C)Cc1cc(CCC(=O)NCCN(C)C)cc(c1OCCC(C)C)Cc1cc(CCC(=O)NCCN(C)C)cc(c1OCCC(C)C)C2
E. coli J96
  pIC50: 5.92
Solubility (Table 1)
  Solubility (solvent, in words): DMSO/H2O
Endothelial cell (EC)
  pIC50: < 4.60

## CN(C)CCNC(=O)COc1c2cc(C(C)(C)C)cc1Cc1cc(C(C)(C)C)cc(c1OCC(=O)NCCN(C)C)Cc1cc(C(C)(C)C)cc(c1OCC(=O)NCCN(C)C)Cc1cc(C(C)(C)C)cc(c1OCC(=O)NCCN(C)C)C2 [Compound 3]
E. coli J96; in the micromolar range (Table 1)
  bactericidal activity (in words): reasonably good bactericidal activity
[1]; [6]
  IC50: 4.4 µM
[1]; [7]
  IC50: > 5 µM
[2]; Table 2
  IC50: > 5 µM
[2]; Table 3, errors estimated ±30%
  IC50: > 5 µM
LPS from P. aeruginosa; Table 2
  IC50: > 5 µM
LPS from P. aeruginosa; Table 3, errors estimated ±30%
  IC50: > 5 µM
LPS from S. typhimurium; Table 2
  IC50: 4.1 µM
LPS from S. typhimurium; Table 3, errors estimated ±30%
  IC50: > 5 µM
LPS from S. marcascens; Table 2
  IC50: > 5 µM
LPS from S. marcascens; Table 3, errors estimated ±30%
  IC50: > 5 µM
LPS from K. pneumoniae; Table 2
  IC50: 0.08 µM
LPS from K. pneumoniae; Table 3, errors estimated ±30%
  IC50: > 5 µM

## CC(C)(C)c1cc2c(OCCCCN)c(c1)Cc1cc(C(C)(C)C)cc(c1OCCCCNC(=N)N)Cc1cc(C(C)(C)C)cc(c1OCCCCNC(=N)N)Cc1cc(C(C)(C)C)cc(c1OCCCCNC(=N)N)C2.O=C(O)C(F)(F)F [Compound 43, 5,11,17,23-Tetra-tert-butyl-25,26,27-tris(4-guanidinobutyroxy)-28-(4-aminobutyroxy) calix[4]arene trifloroacetic acid salt]
[1]; [6]
  IC50: 0.1 µM
[1]; [7]
  IC50: 0.1 µM
[2]; Table 2
  IC50: 0.4 µM
[2]; Table 3, errors estimated ±30%
  IC50: 0.4 µM
[3]
  neutralizing LPS, ranking in words: best LPS neutralizing compounds; also recorded: most effective for neutralizing LPS
LPS from P. aeruginosa; Table 2
  IC50: 0.8 µM
LPS from P. aeruginosa; Table 3, errors estimated ±30%
  IC50: 0.8 µM
LPS from S. typhimurium; Table 2
  IC50: 0.6 µM
LPS from S. typhimurium; Table 3, errors estimated ±30%
  IC50: 0.6 µM
LPS from S. marcascens; Table 2
  IC50: 3.2 µM
LPS from S. marcascens; Table 3, errors estimated ±30%
  IC50: 3.2 µM
LPS from K. pneumoniae; Table 2
  IC50: 0.5 µM
LPS from K. pneumoniae; Table 3, errors estimated ±30%
  IC50: 0.5 µM

## CC(C)CCOc1c2cccc1Cc1cc(CCCOS(=O)(=O)O)cc(c1O)Cc1cccc(c1OCCC(C)C)Cc1cc(CCCOS(=O)(=O)O)cc(c1O)C2 [Compound 49]
[1]; [6]
  IC50: 5 µM
[1]; [7]
  IC50: 5 µM
[2]; Table 2
  IC50: 5 µM
[2]; Table 3, errors estimated ±30%
  IC50: 5 µM
LPS from P. aeruginosa; Table 2
  IC50: > 5 µM
LPS from P. aeruginosa; Table 3, errors estimated ±30%
  IC50: > 5 µM
LPS from S. typhimurium; Table 2
  IC50: > 5 µM
LPS from S. typhimurium; Table 3, errors estimated ±30%
  IC50: > 5 µM
LPS from S. marcascens; Table 2
  IC50: 4.2 µM
LPS from S. marcascens; Table 3, errors estimated ±30%
  IC50: 4.2 µM
LPS from K. pneumoniae; Table 2
  IC50: 2.1 µM
LPS from K. pneumoniae; Table 3, errors estimated ±30%
  IC50: 2.1 µM

## CN(C)CCNC(=O)COc1c2cc(C(C)(C)C)cc1Cc1cc(C(C)(C)C)cc(c1OCC(=O)NCCN(C)C)Cc1cc(C(C)(C)C)cc(c1OCC(=O)NCCN(C)C)Cc1cc(C(C)(C)C)cc(c1OCC(=O)NCCN(C)C)C2 [drawing 10]
Hemolysis (Table 1)
  Hemolysis: 100% at 10^−6 M
E. coli J96
  pIC50: 5.89
Solubility (Table 1)
  Solubility (solvent, in words): DMSO/H2O
EC [4]
  EC % Apoptosis 25 μM: No effect
Fibro
  Other cells 25 μM, Fibro: 100%
Endothelial cell (EC)
  pIC50: < 4.60
EC [5]
  EC % total cell death: No effect

## CC(C)(C)c1cc2c(OCC(=O)NCCN)c(c1)Cc1cc(C(C)(C)C)cc(c1OCC(=O)NCCN)Cc1cc(C(C)(C)C)cc(c1OCC(=O)NCCN)Cc1cc(C(C)(C)C)cc(c1OCC(=O)NCCN)C2 [drawing 14]
E. coli J96
  pIC50: < 5.42
Solubility (Table 1)
  Solubility (solvent, in words): DMSO/H2O
Endothelial cell (EC)
  pIC50: < 4.60

## polymyxin B [PmxB, reference compound]
[1]; [6]
  IC50: 0.03 µM
[1]; [7]
  IC50: 0.03 µM
[2]; Table 2
  IC50: 0.03 µM
[2]; Table 3, errors estimated ±30%
  IC50: 0.03 µM
LPS from P. aeruginosa; Table 2
  IC50: 0.003 µM
LPS from P. aeruginosa; Table 3, errors estimated ±30%
  IC50: 0.003 µM
LPS from S. typhimurium; Table 2
  IC50: 0.1 µM
LPS from S. typhimurium; Table 3, errors estimated ±30%
  IC50: 0.3 µM
LPS from S. marcascens; Table 2
  IC50: > 5 µM
LPS from S. marcascens; Table 3, errors estimated ±30%
  IC50: > 5 µM
LPS from K. pneumoniae; Table 2
  IC50: 0.01 µM
LPS from K. pneumoniae; Table 3, errors estimated ±30%
  IC50: 0.01 µM
